Test results from article PMC9516332 (Frontiers in Oncology, 2022).
Where two headings read alike, the source gives them in different places.

Columns and labels:
134 cancer cell lines [1] = system: 134 cancer cell lines
AP-1060 (ETV6-NTRK3) = experiment: Cell viability assay; conditions: read-out: IC50 in cell proliferation assay
134 cancer cell lines [2] = experiment: Cell viability assay (ATPlite, 72 hours), IC50 on cancer cell line panel

Measured: IC50

FC(F)(F)c1ccc(CNc2ccc(Cc3c[nH]c4ncc(Cl)cc34)cn2)cn1 [pexidartinib]
0.228 µM: 134 cancer cell lines [2]; Homo sapiens, Kasumi 1, read-out: IC50 in cell proliferation assay, Kasumi-1 cell line (KIT p.N822K)
23.6 µM: 134 cancer cell lines [2]; Homo sapiens, G-361, read-out: IC50 in cell proliferation assay, cell line G-361 (BRAF p.V600E)
25.4 µM: 134 cancer cell lines [2]; Homo sapiens, AU565, read-out: IC50 in cell proliferation assay, cell line AU565 (ERBB2 amplification)
0.191 µM: 134 cancer cell lines [2]; Homo sapiens, MOLM-13, read-out: IC50 in cell proliferation assay, MOLM-13 cell line (FLT3 ITD)
10.1 µM: 134 cancer cell lines [2]; Homo sapiens, KATO III, read-out: IC50 in cell proliferation assay, KATO III cell line (FGFR2 amplification)
25.7 µM: 134 cancer cell lines [2]; Homo sapiens, Hs-578T, read-out: IC50 in cell proliferation assay, Hs 578T cell line
0.935 µM: 134 cancer cell lines [2]; Homo sapiens, A204, read-out: IC50 in cell proliferation assay, cell line A-204
> 31.6 µM: 134 cancer cell lines [1] | AP-1060 (ETV6-NTRK3) | 134 cancer cell lines [2]; HEC-6, read-out: IC50 in cell proliferation assay, HEC-6 cell line (EGFR p.A289V) | 134 cancer cell lines [2]; Homo sapiens, 769-P, read-out: IC50 in cell proliferation assay, cell line 769-P | 134 cancer cell lines [2]; Homo sapiens, 786-0, read-out: IC50 in cell proliferation assay, cell line 786-O | 134 cancer cell lines [2]; Homo sapiens, A 172, read-out: IC50 in cell proliferation assay, cell line A-172 | 134 cancer cell lines [2]; Homo sapiens, A498, read-out: IC50 in cell proliferation assay, cell line A-498 | 134 cancer cell lines [2]; Homo sapiens, A549, read-out: IC50 in cell proliferation assay, cell line A-549 | 134 cancer cell lines [2]; Homo sapiens, A704, read-out: IC50 in cell proliferation assay, cell line A-704 | 134 cancer cell lines [2]; Homo sapiens, A-375, read-out: IC50 in cell proliferation assay, cell line A-375 (BRAF p.V600E) | 134 cancer cell lines [2]; Homo sapiens, ACHN, read-out: IC50 in cell proliferation assay, cell line ACHN | 134 cancer cell lines [2]; Homo sapiens, ASPC1, read-out: IC50 in cell proliferation assay, cell line AsPC-1 | 134 cancer cell lines [2]; Homo sapiens, BT-20, read-out: IC50 in cell proliferation assay, cell line BT-20 | 134 cancer cell lines [2]; Homo sapiens, BT-474, read-out: IC50 in cell proliferation assay, cell line BT-474 (ERBB2 amplification) | 134 cancer cell lines [2]; Homo sapiens, BT-549, read-out: IC50 in cell proliferation assay, cell line BT-549 | 134 cancer cell lines [2]; Homo sapiens, BXPC-3, read-out: IC50 in cell proliferation assay, cell line BxPC-3 | 134 cancer cell lines [2]; Homo sapiens, C-33-A, read-out: IC50 in cell proliferation assay, cell line C-33 A | 134 cancer cell lines [2]; Homo sapiens, CAL-27, read-out: IC50 in cell proliferation assay, cell line CAL-27 | 134 cancer cell lines [2]; Homo sapiens, CCF-STTG1, read-out: IC50 in cell proliferation assay, cell line CCF-STTG1 | 134 cancer cell lines [2]; Homo sapiens, CCRF-CEM, read-out: IC50 in cell proliferation assay, cell line CCRF-CEM | 134 cancer cell lines [2]; Homo sapiens, COLO 205, read-out: IC50 in cell proliferation assay, cell line COLO 205 (BRAF p.V600E) | 134 cancer cell lines [2]; Homo sapiens, COLO-829, read-out: IC50 in cell proliferation assay, cell line COLO 829 (BRAF p.V600E) | 134 cancer cell lines [2]; Homo sapiens, DLD-1, read-out: IC50 in cell proliferation assay, cell line DLD-1 | 134 cancer cell lines [2]; Homo sapiens, DU-4475, read-out: IC50 in cell proliferation assay, cell line DU4475 (BRAF p.V600E) | 134 cancer cell lines [2]; Homo sapiens, Daoy, read-out: IC50 in cell proliferation assay, cell line Daoy | 134 cancer cell lines [2]; Homo sapiens, DoTc2-4510, read-out: IC50 in cell proliferation assay, cell line DoTc2 4510 | 134 cancer cell lines [2]; Homo sapiens, FaDu, read-out: IC50 in cell proliferation assay, cell line FaDu | 134 cancer cell lines [2]; Homo sapiens, HCC827, read-out: IC50 in cell proliferation assay, cell line HCC827 (EGFR exon19del) | 134 cancer cell lines [2]; Homo sapiens, HCC4006, read-out: IC50 in cell proliferation assay, cell line HCC4006 (EGFR exon19del) | 134 cancer cell lines [2]; Homo sapiens, HCT-15, read-out: IC50 in cell proliferation assay, cell line HCT 15 | 134 cancer cell lines [2]; Homo sapiens, HCT-116, read-out: IC50 in cell proliferation assay, cell line HCT 116 | 134 cancer cell lines [2]; Homo sapiens, HEC-1, read-out: IC50 in cell proliferation assay, HEC-1 cell line | 134 cancer cell lines [2]; Homo sapiens, HEC-1B, read-out: IC50 in cell proliferation assay, HEC-1-B cell line (EGFR p.A864V) | 134 cancer cell lines [2]; Homo sapiens, HL-60, read-out: IC50 in cell proliferation assay, HL-60 cell line | 134 cancer cell lines [2]; Homo sapiens, HT, read-out: IC50 in cell proliferation assay, HT cell line | 134 cancer cell lines [2]; Homo sapiens, HT-1080, read-out: IC50 in cell proliferation assay, HT-1080 cell line | 134 cancer cell lines [2]; Homo sapiens, Hs746T, read-out: IC50 in cell proliferation assay, Hs 746.T cell line (MET exon14skip + amplification) | 134 cancer cell lines [2]; Homo sapiens, J82, read-out: IC50 in cell proliferation assay, J82 cell line | 134 cancer cell lines [2]; Homo sapiens, Jurkat E6.1, read-out: IC50 in cell proliferation assay, Jurkat E6.1 cell line | 134 cancer cell lines [2]; Homo sapiens, K562, read-out: IC50 in cell proliferation assay, K-562 cell line | 134 cancer cell lines [2]; Homo sapiens, KLE, read-out: IC50 in cell proliferation assay, KLE cell line | 134 cancer cell lines [2]; Homo sapiens, KMS-11, read-out: IC50 in cell proliferation assay, KMS-11 cell line (FGFR3 p.Y373C) | 134 cancer cell lines [2]; Homo sapiens, KU812, read-out: IC50 in cell proliferation assay, Ku812 cell line | 134 cancer cell lines [2]; Homo sapiens, LC-2-ad, read-out: IC50 in cell proliferation assay, LC-2/ad cell line (CCDC6-RET) | 134 cancer cell lines [2]; Homo sapiens, LNCaP-Clone-FGC, read-out: IC50 in cell proliferation assay, LNCaP clone FGC cell line | 134 cancer cell lines [2]; Homo sapiens, LS174T, read-out: IC50 in cell proliferation assay, LS174T cell line | 134 cancer cell lines [2]; Homo sapiens, LS-411N, read-out: IC50 in cell proliferation assay, LS411N cell line (BRAF p.V600E) | 134 cancer cell lines [2]; Homo sapiens, LoVo, read-out: IC50 in cell proliferation assay, LoVo cell line | 134 cancer cell lines [2]; Homo sapiens, MDA-MB-231, read-out: IC50 in cell proliferation assay, MDA-MB-231 cell line | 134 cancer cell lines [2]; Homo sapiens, MDA-MB-453, read-out: IC50 in cell proliferation assay, MDA-MB-453 cell line | 134 cancer cell lines [2]; Homo sapiens, MDA-MB-468, read-out: IC50 in cell proliferation assay, MDA-MB-468 cell line | 134 cancer cell lines [2]; Homo sapiens, MG-63, read-out: IC50 in cell proliferation assay, MG-63 cell line | 134 cancer cell lines [2]; Homo sapiens, MIA PaCa-2, read-out: IC50 in cell proliferation assay, MIA PaCa-2 cell line | 134 cancer cell lines [2]; Homo sapiens, MKN-45, read-out: IC50 in cell proliferation assay, MKN45 cell line (MET amplification)
25.3 µM: 134 cancer cell lines [2]; Homo sapiens, AN3-CA, read-out: IC50 in cell proliferation assay, cell line AN3-CA (FGFR2 p.N549K)
0.01 µM: 134 cancer cell lines [2]; Homo sapiens, EOL1, read-out: IC50 in cell proliferation assay, cell line EoL-1 (FIP1L1-PDGFRA)
18.1 µM: 134 cancer cell lines [2]; Homo sapiens, MCF7, read-out: IC50 in cell proliferation assay, MCF-7 cell line
24.1 µM: 134 cancer cell lines [2]; Homo sapiens, A-427, read-out: IC50 in cell proliferation assay, cell line A-427
7.51 µM: 134 cancer cell lines [2]; Homo sapiens, KG-1, read-out: IC50 in cell proliferation assay, KG-1 cell line (FGFR1OP2-FGFR1)
22.8 µM: 134 cancer cell lines [2]; Homo sapiens, HuTu80, read-out: IC50 in cell proliferation assay, HuTu 80 cell line
